Our source for the IC50 values is PMC3445454, “Broad and Cross-Clade CD4^+ T-Cell Responses Elicited by a DNA Vaccine Encoding Highly Conserved and Promiscuous HIV-1 M-Group Consensus Peptides” (PLoS ONE, 2012).

Substitutions are numbered along the chain they refer to. Where two headings read alike, the source gives them in different places. Ends that are not written are not given here.

Holding throughout (experiment): biochemical
Assay [1] addresses T1, HLA-DP DPA1*01:03/DPB1*04:01 (Homo sapiens, UniProt P04440+P20036).
T1 sequence (P20036 29-260): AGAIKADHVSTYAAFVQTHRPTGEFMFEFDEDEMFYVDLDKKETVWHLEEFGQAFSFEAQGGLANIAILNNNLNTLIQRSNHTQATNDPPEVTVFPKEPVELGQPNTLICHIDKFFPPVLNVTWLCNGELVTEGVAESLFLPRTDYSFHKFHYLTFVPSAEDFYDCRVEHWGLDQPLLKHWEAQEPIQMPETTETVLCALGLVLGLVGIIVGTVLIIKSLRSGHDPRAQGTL
T1 sequence (P04440 30-258): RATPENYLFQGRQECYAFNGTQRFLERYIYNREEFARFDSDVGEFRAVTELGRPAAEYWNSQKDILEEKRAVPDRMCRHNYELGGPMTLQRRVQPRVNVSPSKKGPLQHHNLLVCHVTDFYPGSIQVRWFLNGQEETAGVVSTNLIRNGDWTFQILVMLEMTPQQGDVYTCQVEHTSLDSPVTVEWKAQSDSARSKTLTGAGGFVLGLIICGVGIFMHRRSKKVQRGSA
Type of assay: binding.

For the next assay, the target named is HLA-DR DRB1*10:01 (Homo sapiens, UniProt P01903+P01911, A100R/A169T/D57E/F55L/F60V/F69Y/F76Y/I96L/L162R/M171V/P40V/Q260P/Q39E/Q99R/R195Q/R42F/S149N/S66Y/T210M/V115G/V67A/W38E/Y59R/Y61H). The assay is classed as binding.
In another assay the target is HLA-DR DRB1*09:01 (Homo sapiens, UniProt P01903+P01911, A100R/A103E/D57H/D86V/F55Y/F60I/F76Y/I96F/K127E/L162R/M171V/P40D/Q125H/Q99R/R33Q/R42F/S133A/S66N/T210M/V115G/W38K/Y107V/Y59G/Y89S). Type of assay: binding.
The target of assay [2] is HLA-DP DPA1*02:01/DPB1*01:01 (Homo sapiens, UniProt P04440+P20036, F191V/F38Y/F64Y/G113D/G114E/K142R/L158P/L37V/M105V/M116V/M62Q/P115A/Q81R/R125K/R223Q/T114A/T199I/T259P).
Chain of HLA-DP DPA1*02:01/DPB1*01:01 (P20036 29-260 A42M/M62Q/Q81R/T114A/K142R/L158P/F191V/T259P, other chains not shown): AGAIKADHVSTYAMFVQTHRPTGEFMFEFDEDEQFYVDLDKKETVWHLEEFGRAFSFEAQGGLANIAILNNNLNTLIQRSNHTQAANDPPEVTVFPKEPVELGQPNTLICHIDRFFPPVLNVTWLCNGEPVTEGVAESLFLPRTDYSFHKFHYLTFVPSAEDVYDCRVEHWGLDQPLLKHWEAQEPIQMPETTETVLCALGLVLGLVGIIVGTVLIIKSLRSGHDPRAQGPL
Assay [3] addresses T2, HLA-DP DPA1*02:01/DPB1*05:01 (Homo sapiens, UniProt P04440+P20036, A65V/A84E/F191V/F64L/G113D/G114E/K142R/L158P/M116V/M62Q/P115A/Q81R/R125K/T114A/T199I/T259P/V234M).
T2 sequence (P20036 29-260 A42M/M62Q/Q81R/T114A/K142R/L158P/F191V/T259P): T1 sequence (P20036 29-260) with A14M, M34Q, Q53R, T86A, K114R, L130P, F163V, T231P
T2 sequence (P04440 30-258 F64L/A65V/A84E/G113D/G114E/P115A/M116V/R125K/T199I/V234M): T1 sequence (P04440 30-258) with F35L, A36V, A55E, G84D, G85E, P86A, M87V, R96K, T170I, V205M
The assay is classed as binding. The conditions noted are these: read-out: Binding capacity/IC50 (nM) DPA1*02:01 DPB1*05:01.

In the next assay the target is HLA-DR DRB3*01:01 (Homo sapiens, UniProt P01903+P79483). Type of assay: binding. Particulars: read-out: Binding capacity/IC50 (nM) DRB3*01:01.
A further assay addresses HLA-DR DRB1*07:01 (Homo sapiens, UniProt P01903+P01911, A100R/A102G/A103Q/D57E/D86V/E43K/F76Y/K127E/L162R/M171V/P40G/Q125H/Q99D/R33Q/R42Y/R54Q/S133A/S66F/T210M/V115G/Y107V/Y59L/Y89S). The assay is classed as binding.
For the next assay, the target named is HLA-DR DRB1*03:01 (Homo sapiens, UniProt P01903+P01911, A100K/A102G/A103R/A169T/F55Y/I96L/K41T/L162R/M171V/P40S/Q125H/Q178H/Q39Y/R42S/S66N/T106N/T262R/W38E/Y61H). Type of assay: binding.
Chain of HLA-DR DRB1*03:01 (P01903 26-254 limits assumed, other chains not shown): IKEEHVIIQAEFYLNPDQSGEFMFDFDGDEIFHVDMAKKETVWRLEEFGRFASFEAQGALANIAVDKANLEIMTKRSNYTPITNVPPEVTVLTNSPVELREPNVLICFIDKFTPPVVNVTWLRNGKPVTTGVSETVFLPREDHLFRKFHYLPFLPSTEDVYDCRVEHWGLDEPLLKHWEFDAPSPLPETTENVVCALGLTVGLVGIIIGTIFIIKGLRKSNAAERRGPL
The target in the next assay is HLA-DR DRB1*11:01 (Homo sapiens, UniProt P01903+P01911, A100R/A169T/A87E/I96F/K41T/L162R/M171V/P40S/Q125H/Q178H/Q39Y/Q99D/R42S/S66Y/T262R/V115G/W38E). The assay is classed as binding.
Chain of HLA-DR DRB1*11:01 (P01903 26-254 limits assumed, other chains not shown): as above
In assay [4] the target is T3, HLA-DP DPA1*01:03/DPB1*20:01 (Homo sapiens, UniProt P04440+P20036, A65V/A84D/A85E/E86D/F38Y/G113D/G114E/G40L/I94L/L37V/M116V/P115A/R125K/T199I).
T3 sequence (P20036 29-260): T1 sequence (P20036 29-260)
T3 sequence (P04440 30-258 L37V/F38Y/G40L/A65V/A84D/A85E/E86D/I94L/G113D/G114E/P115A/M116V/R125K/T199I/V234M): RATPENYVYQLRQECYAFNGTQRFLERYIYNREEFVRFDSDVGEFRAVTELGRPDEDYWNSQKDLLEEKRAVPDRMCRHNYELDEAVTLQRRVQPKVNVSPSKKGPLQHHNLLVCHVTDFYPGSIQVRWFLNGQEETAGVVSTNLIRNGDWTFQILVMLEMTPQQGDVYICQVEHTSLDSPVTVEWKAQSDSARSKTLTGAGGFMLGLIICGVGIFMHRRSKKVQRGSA
The assay is classed as binding. Particulars: read-out: Binding capacity/IC50 (nM) DPA1*01:03 DPB1*20:01.

A further assay deals with HLA-DR DRB5*01:01 (Homo sapiens, UniProt P01903+Q30154). Type of assay: binding.
Where [5] appears, read: read-out: Binding capacity/IC50 (nM) DRB1*10:01.
The mark [6] stands for this setting: read-out: Binding capacity/IC50 (nM) DRB1*09:01.
The mark [7] stands for this setting: read-out: Binding capacity/IC50 (nM) DRB1*07:01.
The mark [8] stands for this setting: read-out: Binding capacity/IC50 (nM) DRB1*03:01.
The mark [9] stands for this setting: read-out: Binding capacity/IC50 (nM) DRB1*11:01.
[10] abbreviates: read-out: Binding capacity/IC50 (nM) DRB5*01:01.
Where [11] appears, read: read-out: Binding capacity/IC50 (nM) DPA1*01:03 DPB1*04:01.

For `CSCC[C@H](NC(=O)[C@H](CCCCN)NC(=O)[C@H](C)NC(=O)[C@H](Cc1ccc(O)cc1)NC(=O)[C@H](CCCCN)NC(=O)CNC(=O)[C@@H](NC(=O)[C@H](CCCCN)NC(=O)[C@H](CC(C)C)NC(=O)[C@H](CC(N)=O)NC(=O)[C@H](CCCCN)NC(=O)[C@H](Cc1ccccc1)NC(=O)[C@@H]1CCCN1C(=O)[C@H](CCC(=O)O)NC(=O)[C@@H](N)CCC(N)=O)[C@@H](C)O)C(N)=O` [RT(343-357)], the IC50 amounted to 14 nM in [1]; 19 nM against HLA-DR DRB1*10:01; 335 nM on HLA-DR DRB1*09:01; 0.3 µM in [2]; 1340 nM in assay [3]; 5610 nM on HLA-DR DRB3*01:01. For the same compound, the IC50 against HLA-DR DRB1*07:01 amounted to 6210 nM; against HLA-DR DRB1*03:01 it was 23300 nM; against HLA-DR DRB1*11:01, 428 nM; in assay [4], 2790 nM; against HLA-DR DRB5*01:01, 1.6 nM.

`CC[C@H](C)[C@H](NC(=O)[C@H](CCCCN)NC(=O)[C@H](CCC(N)=O)NC(=O)[C@@H](NC(=O)[C@H](C)NC(=O)[C@H](CCC(=O)O)NC(=O)[C@@H](N)[C@@H](C)O)C(C)C)C(=O)N[C@@H](C)C(=O)N[C@H](C(=O)N[C@@H](CCC(=O)O)C(=O)N[C@@H](CO)C(=O)N[C@H](C(=O)N[C@H](C(=O)N[C@H](C(=O)N[C@@H](Cc1c[nH]c2ccccc12)C(=O)NCC(=O)N[C@@H](CCCCN)C(=O)N[C@H](C(=O)N1CCC[C@H]1C(=O)N[C@@H](CCCCN)C(=O)N[C@@H](Cc1ccccc1)C(=O)N[C@@H](CCCNC(=N)N)C(=O)N[C@@H](CC(C)C)C(N)=O)[C@@H](C)O)[C@@H](C)CC)C(C)C)[C@@H](C)CC)[C@@H](C)O` [RT(369-391)]: the IC50 in assay [1] turned out to be 3220 nM; on HLA-DR DRB1*10:01 (setting [5]) it was 24 nM; on HLA-DR DRB1*09:01 (setting [6]), 310 nM; in [2], 1.54 µM; in assay [3], 154 nM; on HLA-DR DRB3*01:01 it was 6230 nM. The IC50 on HLA-DR DRB1*07:01 (setting [7]) worked out at 20 nM; on HLA-DR DRB1*03:01 (setting [8]) it was 287 nM; on HLA-DR DRB1*11:01 (setting [9]), 329 nM; in [4], 972 nM; on HLA-DR DRB5*01:01 (setting [10]), 68 nM.

`CC(C)C[C@H](NC(=O)[C@H](CCCCN)NC(=O)[C@@H](NC(=O)[C@H](CC(C)C)NC(=O)[C@@H]1CCCN1C(=O)[C@@H]1CCCN1C(=O)[C@@H](NC(=O)[C@H](CC(N)=O)NC(=O)[C@@H](NC(=O)[C@H](Cc1ccccc1)NC(=O)[C@H](CCC(=O)O)NC(=O)[C@H](Cc1c[nH]c2ccccc12)NC(=O)[C@@H](N)CCC(=O)O)C(C)C)[C@@H](C)O)C(C)C)C(=O)N[C@@H](Cc1c[nH]c2ccccc12)C(=O)N[C@@H](Cc1ccc(O)cc1)C(N)=O` [RT(413-427)]: the IC50 in assay [1] (setting [11]) turned out to be 846 nM; on HLA-DR DRB1*10:01, 12 nM; on HLA-DR DRB1*09:01, 57 nM; in assay [2], 0.101 µM; in assay [3] it was 2820 nM; at HLA-DR DRB3*01:01 it was 2390 nM. Further, the IC50 at HLA-DR DRB1*07:01 was found to be 39 nM; at HLA-DR DRB1*03:01 it was 469 nM; against HLA-DR DRB1*11:01 it was 312 nM; in assay [4], 1070 nM; at HLA-DR DRB5*01:01 (setting [10]), 14 nM.

For `CC[C@H](C)[C@H](NC(=O)[C@H](Cc1ccc(O)cc1)NC(=O)CNC(=O)[C@H](CO)NC(=O)[C@H](C)NC(=O)[C@@H](NC(=O)[C@H](Cc1c[nH]cn1)NC(=O)[C@@H](NC(=O)[C@H](C)NC(=O)[C@@H](NC(=O)[C@H](CC(C)C)NC(=O)[C@@H](NC(=O)[C@@H](NC(=O)[C@H](CCCCN)NC(=O)CNC(=O)[C@@H](N)CCC(=O)O)[C@@H](C)CC)[C@@H](C)CC)C(C)C)C(C)C)C(C)C)C(=O)N[C@@H](CCC(=O)O)C(N)=O` [integrase(69-85)], the IC50 in assay [1] (setting [11]) was 2830 nM; on HLA-DR DRB1*10:01 (setting [5]), 4.8 nM; on HLA-DR DRB1*09:01 (setting [6]) it was 58 nM; in assay [2] it was 5.93 µM; in assay [3] it was 2710 nM; at HLA-DR DRB3*01:01, 624 nM. Also, the IC50 at HLA-DR DRB1*07:01 (setting [7]) turned out to be 70 nM; at HLA-DR DRB1*03:01 (setting [8]), 7940 nM; in assay [4] it was 470 nM; at HLA-DR DRB5*01:01 (setting [10]), 523 nM.

As to IVALIIAIVVWTIV-NH2 [vpu(13-26)], the IC50 in assay [1] (setting [11]) was > 30000 nM; at HLA-DR DRB1*10:01 (setting [5]), 1780 nM; on HLA-DR DRB1*09:01 (setting [6]) it was 6640 nM; in [2] it was 26.1 µM; in assay [3], > 30000 nM; at HLA-DR DRB1*07:01 (setting [7]), > 30000 nM. For the same compound, the IC50 was > 30000 nM at HLA-DR DRB1*03:01 (setting [8]), 12700 nM at HLA-DR DRB1*11:01 (setting [9]), 5810 nM in assay [4] and > 30000 nM at HLA-DR DRB5*01:01 (setting [10]).

YAKMRSAHTNDVKQL-NH2 [RT(354-368)]: the IC50 in [1] (setting [11]) is 3550 nM; on HLA-DR DRB1*10:01 (setting [5]), 16 nM; on HLA-DR DRB1*09:01 (setting [6]), 66 nM; in assay [2] it was 4.43 µM; in assay [3], 2190 nM; at HLA-DR DRB1*07:01 (setting [7]), 120 nM. Moreover, the IC50 at HLA-DR DRB1*03:01 (setting [8]) was 7100 nM; at HLA-DR DRB1*11:01 (setting [9]) it was 1760 nM; in assay [4], 202 nM; on HLA-DR DRB5*01:01 (setting [10]), 80 nM.
